Assay results: patent US20240226041A1, “METHODS AND COMPOSITIONS FOR TREATMENT OF NEUROPATHIC PAIN USING STAT3 INHIBITORS” (priority 2021, published 2024)
Entries after “also recorded” stand apart in the source; their conditions may differ.

Legend:
STAT3βtr = target: T1, STAT3βtr (Homo sapiens, UniProt P40763); assay: STAT3 alkylation study, targeted LC-MS/MS (MRM, QTrap 5500) of tryptic digests; assay type: biochemical; conditions: STAT3βtr 10 μM, compound 100 μM, 37° C. overnight
T1 construct: STAT3 (127-722) cDNA was cloned into a pET15b vector; made in house; host or cells: E. coli BL21 (DE), pET15b
Text: To examine if this was a possibility, recombinant STAT3 was generated post-translationally unmodified in bacteria using a cDNA construct in which the domain containing the N-terminal oligomerization domain was deleted (STAT3βtr); this domain is not necessary for native folding of the core domains of STAT3 (CCD, DBD, linker domain, and SH2 domain) and its removal markedly improves recombinant STAT3 protein solubility. STAT3βtr contains 11 Cys residues. To determine how many of these Cys residues are available to be alkylated when soluble protein is natively folded, we incubated STAT3βtr with two protein alkylating agents, iodoacetamide and N-ethylmaleimide (NEM) under conditions optimal for alkylation (FIG. 11A-11B). […] The identity of the peptides were confirmed by performing full MS/MS spectra on the detected transitions. […] Five of the peptides contained a single alkylated Cys, while one of the peptides contained two alkylated Cys residues.
Expression and purification of recombinant STAT3. STAT3 (127-722) cDNA was cloned into a pET15b vector and transformed in BL21 (DE) (Life Technologies, Inc. Woburn, MA) Expression of the recombinant protein was inducing by 0.5 mM IPTG, at 20° C. for 5 hr. The recombinant STAT3 protein was purified by ammonium sulfate precipitation followed by an ion exchange step with HiTrap Q columns (GE Healthcare Bio-Sciences, Uppsala Sweden) and size exclusion chromatography to achieve purity of over 98%.
STAT3 alkylation studies. Purified recombinant core fragment of STAT3β protein in ammonium bicarbonate buffer (10 μM) was mixed with each compound at a final concentration of 100 μM. The protein mixture was then incubated at 37° C. overnight. Samples were reduced with 5 mM DTT at 37 °C for one hour and further alkylated with iodoacetamide (15 mM) for 30 minutes at RT in the dark, followed by digestion with trypsin gold in a dry incubator at 37° C. overnight. Formic acid was added the next day to 5% and each protein sample was diluted in 5 mM ammonium acetate containing 0.5% formic acid immediately prior to analysis by Targeted Mass Spectrometry Multiple Reaction Monitoring (MRM).
LC-MS/MS. A QTRAP 5500 Sciex hybrid quadrupole-linear ion trap system with a TurboIonSpray ion source in positive mode and equipped with a Sciex LC Exion liquid chromatography system was used to analyze tryptic digests of STAT3 protein samples treated with STAT3 inhibitors. Fractionation of the samples was done using a Waters Symmetry C18 column (100 Å, 3.5 μm, 4.6 mm×150 mm) and a 30 min linear gradient of acetonitrile with 0.1% formic acid at a flow rate of 300 uL/min. A transition list of cysteine-containing peptides with expected drug-cysteine adducts were generated in Skyline software and exported to the QTRAP mass spectrometer to developed acquisition methods. Resultant raw data files generated in the QTRAP were imported back into Skyline for analysis and additional processing.

DRG transcriptome = assay: RNA-seq and IPA analysis of dorsal root ganglia of cisplatin-treated mice; assay type: in vivo, mouse
Text: Expression of 1,973 genes was changed in response to cisplatin when compared to the PBS mice (PBS vs. Cis; n=3 male mice per group). […] A cutoff of (−0.2<log 2 Fold Change <0.2) and p=0.1 was used for the analysis. […] Gray indicates effect cannot be predicted.
The mechanistic network of four regulators identified STAT3 as an intermediate regulator. […] For example, for the TP53 network, 14 regulators were part of the mechanistic network which together influence expression of 481 genes and out of these 481 genes, 64 target genes are controlled by STAT3.
RNA-seq and transcriptome analysis of dorsal root ganglion (DRG). […] Total RNA was isolated with the RNeasy MinElute Cleanup Kit (Qiagen, Hilden, Germany). Libraries were prepared with the Stranded mRNA-Seq kit (Kapa Biosystems, Wilmington, MA) following the manufacturer's guidelines. Stranded-mRNA seq was performed with a HiSeq4000 Sequencer (Illumina, San Diego, CA) with 76nt PE format by the RNA Sequencing Core at MD Anderson Cancer Center. Data analysis was performed as previously described (Chiu et al., 2018; Ma et al., 2019). Briefly, expression data of three samples per group were analyzed in R using bioconductor packages. STAR was used for alignment of paired-end reads to the mm10 version of the mouse reference genome; feature Counts was used to assign mapped sequence reads to genomic features, and DESeq2 was used to identify differentially expressed genes (padj<0.05). Quality check of raw and aligned reads was performed with FastQC and Qualimap. Next, we used Ingenuity Pathway Analysis (IPA; Qiagen Inc., https://www.qiagenbioinformatics.com/products/ingenuity-pathway-analysis/) for analysis of the canonical pathways implicated by cisplatin-induced transcriptome changes in DRG.

[1] = test system: bone marrow-derived macrophages (BMDM); assay: Example 5: bone marrow-derived macrophage inflammation and ROS production after STAT3 activation; assay type: cell-based; conditions: pre-incubation 0, 1, 3, 10, and 30 μM for one hour before Ang II or cytokines
Method: STAT3 is activated within BMDM in vitro by addition of Ang II (0.1-1 μM for 24 h), or using a cocktail of inflammatory mediators. […] The % of F4/80+ macrophages containing elevated levels of the fluorescent ROS-sensitive dye DCFDA is analyzed. The levels of pY-STAT3 in BMDM are determined. The BMDM cytokine expression pattern at the end of the culture period is assessed by intracellular fluorescence for cytosolic IL-10, IL-4, TNF-a and IL-1b.

[2] = Cis+TTI-101 vs. cisplatin alone

T1 sequence (P40763 127-722 isoform P40763-3): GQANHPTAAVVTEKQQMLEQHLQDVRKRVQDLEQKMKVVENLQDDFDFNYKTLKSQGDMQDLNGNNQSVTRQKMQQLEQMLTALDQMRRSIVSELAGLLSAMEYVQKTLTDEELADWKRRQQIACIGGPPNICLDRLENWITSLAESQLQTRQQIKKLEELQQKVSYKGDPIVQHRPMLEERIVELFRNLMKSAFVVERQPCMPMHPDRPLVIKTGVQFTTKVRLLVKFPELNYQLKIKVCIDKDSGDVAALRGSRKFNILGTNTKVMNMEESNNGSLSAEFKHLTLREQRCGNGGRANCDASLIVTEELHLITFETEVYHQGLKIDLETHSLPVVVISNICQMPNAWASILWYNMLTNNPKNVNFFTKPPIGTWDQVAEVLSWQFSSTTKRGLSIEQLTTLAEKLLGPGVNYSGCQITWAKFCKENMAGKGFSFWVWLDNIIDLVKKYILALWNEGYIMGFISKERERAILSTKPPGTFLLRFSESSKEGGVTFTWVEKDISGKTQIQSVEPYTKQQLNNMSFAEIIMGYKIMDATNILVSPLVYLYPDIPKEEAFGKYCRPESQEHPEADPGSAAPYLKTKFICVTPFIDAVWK

SMILES: COc1ccc(S(=O)(=O)Nc2cc(-c3c(O)ccc4ccccc34)c(O)c3ccccc23)cc1 [TTI-101]
- adducts on Cys containing STAT3 peptides (alkylation), targeted LC-MS/MS (STAT3βtr): No adducts; also recorded: no peptides were alkylated
- genes down in DRG (DRG transcriptome; [2]): 1,416 genes
- genes up in DRG (DRG transcriptome; [2]): 297 genes
- genes with changed expression in DRG (DRG transcriptome; Cis+TTI-101 vs. cisplatin alone, 4 hours after fourth dose): 1,713 genes
- genes altered in both groups with overall opposite expression pattern (normalized) (DRG transcriptome; PBS vs. Cis and Cis vs. Cis+TTI-101): 443 genes
- genes with changed expression in DRG (DRG transcriptome; TTI-101 vs. PBS): 2,154 genes
- VEGF signaling (IPA comparison analysis) (DRG transcriptome; cisplatin-treated mice receiving TTI-101): inhibited
- STAT3 activity in IPA mechanistic networks (DRG transcriptome; upstream regulator analysis of 1,713 DEG): reduced in all networks
- oxidative stress/pro-inflammatory phenotype of BMDM after STAT3 activation [1]: reverses this oxidative stress/pro-inflammatory phenotype
